Organism: Rattus norvegicus
Assay: Open TG-GATES - Regimen: Single
Type: toxicity, organism-based, Sprague-Dawley
Set-up: regimen Single, gender Male, age 6 weeks
Conditions: in vivo, po, route gavage; for APTT / Bas / Eos / Fbg / Hb / Ht / Lym / MCH / MCHC / MCV / Mono / Neu / PT / Plat / RBC / Ret / WBC: tissue Blood; for KIDNEY_L / KIDNEY_R / KIDNEY_TOTAL: tissue Kidney; for LIVER: tissue Liver; for A/G / ALP / ALT / AST / BUN / CRE / Ca / Cl / DBIL / GLC / IP / K / LDH / Na / PL / RALB / TBIL / TC / TG / TP / gamma-GTP: tissue Plasma
[1] = 100 mg/kg, 3 h, dose level Middle
[2] = 100 mg/kg, 6 h, dose level Middle
[3] = 100 mg/kg, 9 h, dose level Middle
[4] = 100 mg/kg, 24 h, dose level Middle
[5] = 300 mg/kg, 3 h, dose level High
[6] = 300 mg/kg, 6 h, dose level High
[7] = 300 mg/kg, 9 h, dose level High
[8] = 300 mg/kg, 24 h, dose level High

## CCOC(=O)C(C)(C)Oc1ccc(Cl)cc1 [CLOFIBRATE]
[1]
  TERMINAL_BW: 227.5 g
  APTT: 18.9 s
  Bas: 0%
  Eos: 1%
  Fbg: 231.4 mg/dL
  Hb: 13.6 g/dL
  Ht: 39%
  Lym: 76.6%
  MCH: 20.9 pg
  MCHC: 34.8%
  MCV: 60.1 fL
  Mono: 2.6%
  Neu: 19.2%
  PT: 12.3 s
  Plat: 126.5 x10_4/uL
  RBC: 649.6 x10_4/ul
  Ret: 7.1%
  WBC: 87.8 x10_2/uL
  KIDNEY_L: 1 g
  KIDNEY_R: 1 g
  KIDNEY_TOTAL: 1.9 g
  LIVER: 9.9 g
  A/G: 1.6
  ALP: 1012.4 IU/L
  ALT: 36.8 IU/L
  AST: 68.2 IU/L
  BUN: 10 mg/dL
  CRE: 0.3 mg/dL
  Ca: 10.7 mg/dL
  Cl: 102.6 meq/L
  DBIL: 0.2 mg/dL
  GLC: 201.6 mg/dL
  IP: 9 mg/dL
  K: 3.8 meq/L
  LDH: 203.6 IU/L
  Na: 139.6 meq/L
  PL: 157.6 mg/dL
  RALB: 3.5 g/dL
  TBIL: 0.3 mg/dL
  TC: 75.2 mg/dL
  TG: 121 mg/dL
  TP: 5.7 g/dL
  gamma-GTP: 0.4 IU/L
[2]
  TERMINAL_BW: 227.2 g
  APTT: 18.9 s
  Bas: 0%
  Eos: 1%
  Fbg: 232.6 mg/dL
  Hb: 13.7 g/dL
  Ht: 39.5%
  Lym: 79.6%
  MCH: 20.8 pg
  MCHC: 34.6%
  MCV: 60.1 fL
  Mono: 3.2%
  Neu: 16%
  PT: 12.5 s
  Plat: 132.6 x10_4/uL
  RBC: 657.6 x10_4/ul
  Ret: 7.3%
  WBC: 89.7 x10_2/uL
  KIDNEY_L: 1 g
  KIDNEY_R: 1 g
  KIDNEY_TOTAL: 2 g
  LIVER: 10.1 g
  A/G: 1.6
  ALP: 987.8 IU/L
  ALT: 29.8 IU/L
  AST: 62.8 IU/L
  BUN: 9.2 mg/dL
  CRE: 0.4 mg/dL
  Ca: 10.9 mg/dL
  Cl: 102.4 meq/L
  DBIL: 0.1 mg/dL
  GLC: 196.2 mg/dL
  IP: 9.4 mg/dL
  K: 4.2 meq/L
  LDH: 223.6 IU/L
  Na: 139 meq/L
  PL: 146.8 mg/dL
  RALB: 3.5 g/dL
  TBIL: 0.2 mg/dL
  TC: 73.8 mg/dL
  TG: 106.4 mg/dL
  TP: 5.7 g/dL
  gamma-GTP: 0.6 IU/L
[3]
  TERMINAL_BW: 222.9 g
  APTT: 17.6 s
  Bas: 0%
  Eos: 1%
  Fbg: 227.4 mg/dL
  Hb: 13.3 g/dL
  Ht: 38.2%
  Lym: 80.2%
  MCH: 21 pg
  MCHC: 34.8%
  MCV: 60.5 fL
  Mono: 1.8%
  Neu: 16.6%
  PT: 12.9 s
  Plat: 137.6 x10_4/uL
  RBC: 630.2 x10_4/ul
  Ret: 7.4%
  WBC: 82.1 x10_2/uL
  KIDNEY_L: 1 g
  KIDNEY_R: 1 g
  KIDNEY_TOTAL: 2.1 g
  LIVER: 9.6 g
  A/G: 1.6
  ALP: 1028.4 IU/L
  ALT: 26.6 IU/L
  AST: 59.4 IU/L
  BUN: 9.8 mg/dL
  CRE: 0.4 mg/dL
  Ca: 10.4 mg/dL
  Cl: 101.4 meq/L
  DBIL: 0.088 mg/dL
  GLC: 206.4 mg/dL
  IP: 10.3 mg/dL
  K: 3.5 meq/L
  LDH: 182.4 IU/L
  Na: 140.2 meq/L
  PL: 120.4 mg/dL
  RALB: 3.4 g/dL
  TBIL: 0.1 mg/dL
  TC: 59.4 mg/dL
  TG: 73 mg/dL
  TP: 5.6 g/dL
  gamma-GTP: 0.6 IU/L
[4]
  TERMINAL_BW: 236 g
  APTT: 19.1 s
  Bas: 0%
  Eos: 1%
  Fbg: 223.8 mg/dL
  Hb: 13.6 g/dL
  Ht: 38.9%
  Lym: 79.8%
  MCH: 21.4 pg
  MCHC: 34.9%
  MCV: 61.4 fL
  Mono: 3.2%
  Neu: 15.4%
  PT: 12.6 s
  Plat: 131 x10_4/uL
  RBC: 633.6 x10_4/ul
  Ret: 7%
  WBC: 93.4 x10_2/uL
  KIDNEY_L: 1 g
  KIDNEY_R: 1 g
  KIDNEY_TOTAL: 2 g
  LIVER: 12 g
  A/G: 1.6
  ALP: 871 IU/L
  ALT: 36 IU/L
  AST: 65.6 IU/L
  BUN: 14.8 mg/dL
  CRE: 0.4 mg/dL
  Ca: 10.9 mg/dL
  Cl: 100.8 meq/L
  DBIL: 0.088 mg/dL
  GLC: 202 mg/dL
  IP: 7.5 mg/dL
  K: 3.7 meq/L
  LDH: 219.2 IU/L
  Na: 139.6 meq/L
  PL: 134.2 mg/dL
  RALB: 3.4 g/dL
  TBIL: 0.1 mg/dL
  TC: 60.4 mg/dL
  TG: 106.4 mg/dL
  TP: 5.6 g/dL
  gamma-GTP: 1 IU/L
[5]
  TERMINAL_BW: 225.9 g
  APTT: 19.5 s
  Bas: 0%
  Eos: 1%
  Fbg: 231.2 mg/dL
  Hb: 13.5 g/dL
  Ht: 39.3%
  Lym: 78%
  MCH: 21.4 pg
  MCHC: 34.2%
  MCV: 62.5 fL
  Mono: 3%
  Neu: 17.2%
  PT: 12.5 s
  Plat: 127.2 x10_4/uL
  RBC: 629.6 x10_4/ul
  Ret: 7.9%
  WBC: 103.9 x10_2/uL
  KIDNEY_L: 1 g
  KIDNEY_R: 1 g
  KIDNEY_TOTAL: 2 g
  LIVER: 9.8 g
  A/G: 1.6
  ALP: 991.6 IU/L
  ALT: 41.8 IU/L
  AST: 73.2 IU/L
  BUN: 10.4 mg/dL
  CRE: 0.4 mg/dL
  Ca: 11 mg/dL
  Cl: 102.4 meq/L
  DBIL: 0.1 mg/dL
  GLC: 190 mg/dL
  IP: 9.4 mg/dL
  K: 3.6 meq/L
  LDH: 260.6 IU/L
  Na: 140.4 meq/L
  PL: 149.6 mg/dL
  RALB: 3.5 g/dL
  TBIL: 0.2 mg/dL
  TC: 73 mg/dL
  TG: 76.2 mg/dL
  TP: 5.6 g/dL
  gamma-GTP: 0.6 IU/L
[6]
  TERMINAL_BW: 227.7 g
  APTT: 18.2 s
  Bas: 0%
  Eos: 1%
  Fbg: 240.8 mg/dL
  Hb: 13.4 g/dL
  Ht: 38.8%
  Lym: 76.4%
  MCH: 21.1 pg
  MCHC: 34.5%
  MCV: 61.3 fL
  Mono: 3.2%
  Neu: 18.4%
  PT: 12.7 s
  Plat: 134.1 x10_4/uL
  RBC: 633.8 x10_4/ul
  Ret: 7.4%
  WBC: 83.7 x10_2/uL
  KIDNEY_L: 1 g
  KIDNEY_R: 1 g
  KIDNEY_TOTAL: 2 g
  LIVER: 9.5 g
  A/G: 1.6
  ALP: 1008 IU/L
  ALT: 35.8 IU/L
  AST: 74.4 IU/L
  BUN: 10.2 mg/dL
  CRE: 0.4 mg/dL
  Ca: 10.9 mg/dL
  Cl: 102.8 meq/L
  DBIL: 0.09 mg/dL
  GLC: 195.6 mg/dL
  IP: 9.5 mg/dL
  K: 4 meq/L
  LDH: 218.8 IU/L
  Na: 140.4 meq/L
  PL: 135 mg/dL
  RALB: 3.5 g/dL
  TBIL: 0.2 mg/dL
  TC: 71 mg/dL
  TG: 96.2 mg/dL
  TP: 5.7 g/dL
  gamma-GTP: 1.2 IU/L
[7]
  TERMINAL_BW: 229.4 g
  APTT: 18 s
  Bas: 0%
  Eos: 1%
  Fbg: 235.6 mg/dL
  Hb: 13.1 g/dL
  Ht: 38.1%
  Lym: 72.8%
  MCH: 21 pg
  MCHC: 34.5%
  MCV: 61 fL
  Mono: 2.8%
  Neu: 22.8%
  PT: 12.9 s
  Plat: 140.4 x10_4/uL
  RBC: 625.6 x10_4/ul
  Ret: 7.1%
  WBC: 69.9 x10_2/uL
  KIDNEY_L: 1 g
  KIDNEY_R: 1 g
  KIDNEY_TOTAL: 2 g
  LIVER: 9.4 g
  A/G: 1.5
  ALP: 1054.2 IU/L
  ALT: 33 IU/L
  AST: 70.4 IU/L
  BUN: 10.8 mg/dL
  CRE: 0.4 mg/dL
  Ca: 10.5 mg/dL
  Cl: 102.4 meq/L
  DBIL: 0.09 mg/dL
  GLC: 201 mg/dL
  IP: 10.3 mg/dL
  K: 3.7 meq/L
  LDH: 203.6 IU/L
  Na: 140.4 meq/L
  PL: 116 mg/dL
  RALB: 3.3 g/dL
  TBIL: 0.1 mg/dL
  TC: 53.8 mg/dL
  TG: 81.8 mg/dL
  TP: 5.5 g/dL
  gamma-GTP: 1 IU/L
[8]
  TERMINAL_BW: 236.8 g
  APTT: 19.3 s
  Bas: 0%
  Eos: 0.8%
  Fbg: 218.2 mg/dL
  Hb: 13.5 g/dL
  Ht: 38.6%
  Lym: 77.2%
  MCH: 21.2 pg
  MCHC: 34.9%
  MCV: 60.7 fL
  Mono: 4%
  Neu: 17.6%
  PT: 13.3 s
  Plat: 127.2 x10_4/uL
  RBC: 636.8 x10_4/ul
  Ret: 6.4%
  WBC: 102.9 x10_2/uL
  KIDNEY_L: 1 g
  KIDNEY_R: 1.1 g
  KIDNEY_TOTAL: 2.1 g
  LIVER: 12.3 g
  A/G: 1.7
  ALP: 1007.8 IU/L
  ALT: 38 IU/L
  AST: 79 IU/L
  BUN: 15.4 mg/dL
  CRE: 0.4 mg/dL
  Ca: 10.6 mg/dL
  Cl: 100.4 meq/L
  DBIL: 0.086 mg/dL
  GLC: 201.2 mg/dL
  IP: 7.5 mg/dL
  K: 3.8 meq/L
  LDH: 223.4 IU/L
  Na: 140 meq/L
  PL: 104.8 mg/dL
  RALB: 3.5 g/dL
  TBIL: 0.1 mg/dL
  TC: 43.6 mg/dL
  TG: 103.8 mg/dL
  TP: 5.5 g/dL
  gamma-GTP: 1.4 IU/L

Reference: ChEMBL document CHEMBL3885861, “Open TG-GATES”
